# Values quoted from earlier work in patent US20070237728A1, “Method and Composition for Dental Bleaching” (HIGH TECH LASER, priority 2000, published 2007).
# Where two headings read alike, the source gives them in different places.
# Tested on: teeth
type of teeth discolouration caused (tetracycline staining of teeth),Structure (SMILES),type of teeth discolouration caused (in vivo)
yellow discolouration,CN(C)[C@@H]1C(O)=C(C(N)=O)C(=O)[C@@]2(O)C(O)=C3C(=O)c4c(O)ccc(Cl)c4[C@@H](O)[C@H]3C[C@@H]12 [dimethylchlorotetracyclin],–
–,CN(C)[C@@H]1C(=O)C(C(N)=O)=C(O)[C@@]2(O)C(=O)C3=C(O)c4c(O)cccc4[C@@](C)(O)[C@H]3[C@H](O)[C@@H]12 [oxytetracyclin],yellow discolouration
yellow discolouration,CN(C)[C@@H]1C(O)=C(C(N)=O)C(=O)[C@@]2(O)C(O)=C3C(=O)c4c(O)cccc4[C@@](C)(O)[C@H]3C[C@@H]12 [tetracycline],–
